# Measured values taken from patent US20260306526A1, “COMBINATION THERAPY FOR BACTERIAL INFECTIONS COMPRISING ZINC-CHELATOR, BETA-LACTAM ANTIBIOTIC AND SERINE BETA-LACTAMASE INHIBITOR” (priority 2023, published 2026).
# “And” between values parts separate entries of the source, which are not always exact repeats. Equal entries are not always repeated.
# Columns and labels:
# [1] = tested on: Pseudomonas aeruginosa ST111; experiment: MIC determination, fixed concentration of sBLI (Examples 27-30); assay type: cell-based; conditions: VIM-2, OXA-395, PDC-3, caMHB, 29.4 μM Zn2+
# Protocol: (§1) Antimicrobial susceptibility testing (AST) by broth microdilution (MIC determination) was performed according to The European Committee on Antimicrobial Susceptibility Testing (EUCAST) guidelines (see Reading guide for broth microdilution Version 5.0, 2024: https://www.eucast.org).
# (§2) For combinations containing meropenem as the antibiotic, Sensititre™ FINMER meropenem 64-0.03 μg/mL plates (Thermo Fischer Diagnostics custom plates; YFINMER) were used in most of the experiments. For other antibiotics (and for meropenem whenever a higher start concentration than 64 μg/mL was needed) sterile clear round bottom polystyrene (non-treated) 96-well microplates (Corning 3788) were used for making serial two-fold dilutions of the antibiotic in cation-adjusted Mueller Hinton II broth (caMHB; Thermo Scientific, T3462, containing 29.4 μM Zn^2+ or MILLIPORE, 90922-500G, containing 5.6 μM Zn^2+), across the columns of the microtiter plate (128-0.06 μg/mL; columns 1-12).
# The checkerboard plates were all modified by adding a serine β-lactamase inhibitor (sBLI) at a fixed concentration of 16 μg/mL. Additionally, the zinc chelator was added at various fixed concentrations. […]
# [2] = tested on: Acinetobacter baumannii ST15; experiment: MIC determination, fixed concentration of sBLI (Examples 11-18); assay type: cell-based; conditions: NDM-1, OXA-51, ADC-263, caMHB
# Protocol: as §1, §2
# The checkerboard plates were all modified by adding a serine β-lactamase inhibitor (sBLI) at a fixed concentration of 16 μg/mL. Additionally, the zinc chelator was added at various fixed concentrations. Samples were mixed so that all plates contained a control containing antibiotic alone (no sBLI, no zinc chelator), a sample containing antibiotic and sBLI (double combination; no zinc chelator), and a sample containing antibiotic, sBLI and zinc chelator (triple combination). All test wells used in each plate contained growth medium (caMHB), and inoculated bacteria at a final inoculum between 3-7×10^5 CFU/mL. […] Synergy for the triple combination (antibiotic, sBLI, and zinc chelator) was defined as when the MIC in any of the rows containing the zinc chelator in combination with antibiotic and sBLI (triple combination), was lower than for antibiotic alone and lower than for the antibiotic and sBLI double combination.
# (§3) An X in rows 1~4 in the table indicates growth of the bacterial inoculum, while a blank cell indicates no growth. Concentrations (μg/mL) of MEM are given in row 0. SUL and the zinc chelator were added in fixed concentrations (SUL at 16 μg/mL in rows 2-4, zinc chelator at 16 μg/mL in row 3 and at 8 μg/mL in row 4). As a control, the effect of MEM alone was tested (row 1). All wells contained bacterial growth medium (caMHB, 29.4 μM Zn^2+) and were inoculated with the test bacterium. The grey cells indicate the meropenem MIC.
# as §3, with “AMOX” for “MEM”, “amoxicillin” for “meropenem”
# Two technical replicates were performed for each sample. An X in rows 1-8 in the table indicates growth of the bacterial inoculum, while a blank cell indicates no growth. Concentrations (μg/mL) of AMP are given in row 0. SUL and the zinc chelator were added in fixed concentrations (SUL at 16 μg/mL in rows 3-8, zinc chelator at 16 μg/mL in rows 5-6 and at 8 μg/mL in rows 7-8). As a control, the effect of AMP alone was tested (rows 1-2). All wells contained bacterial growth medium (caMHB, 29.4 μM Zn^2+) and were inoculated with the test bacterium. […]
# [3] = tested on: certain strains of Pseudomonas aeruginosa; conditions: with MEM; cited from earlier work
smiles,measurement,setting,value
CN(C[C@H](O)[C@@H](O)[C@H](O)[C@H](O)CO)C(=O)c1ccc(CN(Cc2ccccn2)Cc2ccccn2)nc1 [zinc chelator],Synergy with the zinc chelator observed at concentration,"[1]; Example 27, with PIP and AVI 16 μg/mL",16 µg/mL
same,Synergy with the zinc chelator observed at concentration,"[1]; Example 28, with PIP and TAZ 16 μg/mL",16 µg/mL and 8 µg/mL
same,Synergy with the zinc chelator observed at concentration,"[2]; Example 11, with MEM and SUL 16 μg/mL, 29.4 μM Zn2+",16 µg/mL
same,Synergy with the zinc chelator observed at concentration,"[2]; Example 12, with AMOX and SUL 16 μg/mL, 29.4 μM Zn2+",16 µg/mL
same,Synergy with the zinc chelator observed at concentration,"[2]; Example 13, with AMP and SUL 16 μg/mL, 29.4 μM Zn2+",16 µg/mL
same,Synergy with the zinc chelator observed at concentration,"[2]; Example 14, with PIP and TAZ 16 μg/mL, 29.4 μM Zn2+",16 µg/mL and 8 µg/mL
same,Synergy with the zinc chelator observed at concentration,"[2]; Example 18, with PIP and TAZ 16 μg/mL, 5.6 μM Zn2+",16 µg/mL and 8 µg/mL
same,effect of combination,[3],poor effect
